Assay results from US11535630B2, “Apelin receptor (APJ) agonists and uses thereof” (Research Triangle Institute, priority 2015, dated 2022).
Where two headings read alike, the source gives them in different places.

Assays:
[1] = target: T1, apelin receptor (APJ) (Homo sapiens, UniProt P35414); assay: In vitro apelin agonist activity (methods of Giddings et al., Apelin-13 as positive control); assay type: cell-based
T1 sequence (P35414 1-380): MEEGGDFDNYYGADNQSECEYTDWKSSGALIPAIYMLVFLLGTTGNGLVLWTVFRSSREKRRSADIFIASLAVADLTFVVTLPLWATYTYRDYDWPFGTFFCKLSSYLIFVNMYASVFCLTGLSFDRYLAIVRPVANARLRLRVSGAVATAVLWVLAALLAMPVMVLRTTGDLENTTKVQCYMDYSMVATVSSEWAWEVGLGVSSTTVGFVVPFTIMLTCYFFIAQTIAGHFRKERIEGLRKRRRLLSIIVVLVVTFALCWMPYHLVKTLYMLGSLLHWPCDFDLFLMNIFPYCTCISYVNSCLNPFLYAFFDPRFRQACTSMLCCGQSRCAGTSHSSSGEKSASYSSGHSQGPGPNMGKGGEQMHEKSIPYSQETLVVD
Description: Characterization of the Apelin Agonist Activity of the Compounds
1:39-47, the contents of which are hereby incorporated by reference in its entirety. Using the methods described in Giddings et al. and Apelin-13 as a positive control.

[2] = Caco-2 cellular uptake / permeability assay (A-to-B, B-to-A); assay type: in vitro ADME; details: human, Caco-2, pH 7.4
Procedure: 5.3. Cellular Uptake Assay
Caco-2 cells (clone C2BBe1) were obtained from American Type Culture Collection (Manassas, Va,). Cell monolayers were grown to confluence on collagen-coated, microporous, polycarbonate membranes in 12-well Costar Transwell plates. Details of the plates and their certification are shown below. The permeability assay buffer was Hanks' balanced salt solution (HBSS) containing 10 mM HEPES and 15 mM glucose at a pH of 7.4. The buffer in the receiver chamber also contained 1% bovine serum albumin. The dosing solution concentration was 5 μM for each test article in the assay buffer. Cell monolayers were dosed on the apical side (A-to-B) or basolateral side (B-to-A) and incubated at 37° C. with 5% CO2 in a humidified incubator. Samples were taken from the donor and receiver chambers at 120 minutes. Each determination was performed in duplicate. After the experiment, all assay buffers were removed from the inserts. Cell monolayers were dosed with blank 500 μM lucifer yellow on the A-to-B side and blank HBSS on the B-to-A side and incubated at 37° C. Samples were taken from the B-to-A side at 60 minutes. The flux of lucifer yellow was measured for each monolayer to ensure no damage was inflicted to the cell monolayers during the flux period. All samples were analyzed by LC-MS/MS using electrospray ionization.
Where, dCr/dt is the slope of the cumulative concentration in the receiver compartment versus time in μM s^−1;
Vr is the volume of the receiver compartment in cm^3;
Vd is the volume of the donor compartment in cm^3;
CA is the average of the nominal dosing concentration and the measured 120-minute donor concentration in μM;
CN is the nominal concentration of the dosing solution in μM;
Cr^final is the cumulative receiver concentration in μM at the end of the incubation period;
Cd^final is the concentration of the donor in μM at the end of the incubation period.
Efflux ratio (ER) is defined as Papp (B-to-A)/Papp (A-to-B).

[3] = system: male Sprague-Dawley rats; assay: In vivo blood pressure lowering in conscious telemetered rats, oral gavage; design: species or system rat; details: for Diastolic blood pressure, 2-5 h mean change from baseline / MAP, 2-5 h mean change from baseline / Systolic blood pressure, 2-5 h mean change from baseline: rat; for Effect on blood pressure (in words): oral gavage 7.5, 15 or 30 mg/kg, male Sprague-Dawley rats
Procedure: In Vivo Blood Pressure Lowering Activity of the Compounds
Select compounds were evaluated for their effects upon oral administration on hemodynamic changes, including blood pressure reduction, in conscious, telemetered male Sprague-Dawley rats. Apelin peptides are known to lower blood pressure, e.g., Tatemoto, K., et.al. Regul. Pept. 2001, 99, 87-92.
Animals were approximately 7-9 weeks of age and weighed between 247 g to 263 g just prior to surgery. Dose levels administered were 7.5, 15 or 30 mg/kg, dose volumes were 10 mL/kg, and dose route of administration was oral gavage. Animals were assigned to a crossover experimental treatment schedule as shown below.
Collected data included systolic, diastolic, and mean arterial blood pressure (MAP). Data collection time points were for pre-dose baseline approximately 48 h (prior to treatment 1) or approximately 24 h (prior to treatment 2-4) for 10 sec every 2 min. Data collection post-dose was collected through approximately 24 h (data collected for 10 sec every 2 min) per treatment. Resulting data is presented below as the 2-5 h mean change from baseline in mmHg.

[4] = apelin agonist potency as listed in Table 3 (Cellular Uptake Results), read-out: EC50
[5] = in vitro apelin agonist activity, methods of Giddings et al., Apelin-13 as positive control, read-out: EC50 (nM) Ave

SMILES	EC50 [1, 4] [nM]	EC50 [1, 5] [nM]	efflux ratio at 120 min, 5 μM [2]	Diastolic blood pressure, 2-5 h mean change from baseline ([3]; 7.5 mg/kg oral gavage) [mmHg]	MAP, 2-5 h mean change from baseline ([3]; 7.5 mg/kg oral gavage) [mmHg]	Systolic blood pressure, 2-5 h mean change from baseline ([3]; 7.5 mg/kg oral gavage) [mmHg]	Diastolic blood pressure, 2-5 h mean change from baseline ([3]; 15 mg/kg oral gavage) [mmHg]	MAP, 2-5 h mean change from baseline ([3]; 15 mg/kg oral gavage) [mmHg]	Systolic blood pressure, 2-5 h mean change from baseline ([3]; 15 mg/kg oral gavage) [mmHg]	Diastolic blood pressure, 2-5 h mean change from baseline ([3]; 30 mg/kg oral gavage) [mmHg]	MAP, 2-5 h mean change from baseline ([3]; 30 mg/kg oral gavage) [mmHg]	Systolic blood pressure, 2-5 h mean change from baseline ([3]; 30 mg/kg oral gavage) [mmHg]	Effect on blood pressure (in words) [3]
COc1cccc(OC)c1-c1cc(C(=O)N[C@@H](CCN2CCCC(F)(F)C2)CC(=O)NC2CCC2)nn1C1CCCC1 [compound 348, (3S)-N-cyclobutyl-3-{[1-cyclopentyl-5-(2,6-dimethoxyphenyl)-1H-pyrazol-3-yl]formamido}-5-(3,3-difluoropiperidin-1-yl)pentanamide]	15	15	2.1	–	–	–	–	–	–	–	–	–	–
O=C(N[C@@H](CCN1CCCC(F)(F)C1)Cc1nnn[nH]1)c1cc(-c2ccccc2C(F)(F)F)n(C2CCCC2)n1 [compound 551, 1-cyclopentyl-N-[(2S)-4-(3,3-difluoropiperidin-1-yl)-1-(1H-1,2,3,4-tetrazol-5-yl)butan-2-yl]-5{2-(trifluoromethyl)phenyl]-1H-pyrazole-3-carboxamide]	–	25	–	−4.3	−4.5	−6.6	−7.3	−8.5	−9.6	−8.4	−9.8	−11.3	dose-dependent, mild sustained decrease in blood pressure
Cl.O=C(O)C[C@H](CCN1CCCC(F)(F)C1)NC(=O)c1cc(-c2ccccc2C(F)(F)F)n(C2CCCC2)n1 [compound 423, (3S)-3-({1-cyclopentyl-5-[2-(trifluoromethyl)phenyl]-1H-pyrazol-3-yl}formamido)-5-(3,3-difluoropiperidin-1-yl)pentanoic acid]	–	35	–	−9.9	−10.0	−13.0	−7.3	−8.4	−9.8	−8.3	−9.3	−10.7	mild sustained decrease in blood pressure
COc1cccc(OC)c1-c1cc(C(=O)N[C@@H](CCN2CCCC(F)(F)C2)CC(=O)Nc2nccs2)nn1C1CCCC1 [compound 384, (3S)-3-{[1-cyclopentyl-5-(2,6-dimethoxyphenyl)-1H-pyrazol-3-yl]formamido}-5-(3,3-difluoropiperidin-1-yl)-N-(1,3-thiazol-2-yl)pentanamide]	15	15	1.7	–	–	–	–	–	–	–	–	–	–
CCc1ccccc1-c1cc(C(=O)N[C@@H](CCN2CCCCC2)CC(=O)NC2CCC2)nn1C1CCCC1 [compound 363, (3S)-N-cyclobutyl-3-{[1-cyclopentyl-5-(2-ethylphenyl)-1H-pyrazol-3-yl]formamido}-5-(piperidin-1-yl)pentanamide]	44	44	3.6	–	–	–	–	–	–	–	–	–	–
COc1cccc(OC)c1-c1cc(C(=O)N[C@@H](CCN2CCC(F)(F)CC2)CC(=O)NC2CCC2)nn1C1CCCC1 [compound 335, (3S)-N-cyclobutyl-3-{[1-cyclopentyl-5-(2,6-dimethoxyphenyl)-1H-pyrazol-3-yl]formamido}-5-(4,4-difluoropiperidin-1-yl)pentanamide]	63	63	1	–	–	–	–	–	–	–	–	–	–
O=C(N[C@@H](CC(=O)N1CCCC(F)(F)C1)CS(=O)(=O)NC1CCC1)c1cc(-c2ccccc2C(F)(F)F)n(C2CCCC2)n1 [compound 541, N-[(2S)-1-(cyclobutylsulfamoyl)-4-(3,3-difluoropiperidin-1-yl)-4-oxobutan-2-yl]-1-cyclopentyl-5-[2-(trifluoromethyl)phenyl]-1H-pyrazole-3-carboxamide]	–	1060	–	–	–	–	–	–	–	–	–	–	–
CCc1ccccc1-c1cc(C(=O)N[C@@H](CCN2CCCC(F)(F)C2)CC(=O)Nc2nccs2)nn1C1CCCC1 [compound 410, (3S)-3-{[1-cyclopentyl-5-(2-ethylphenyl)-1H-pyrazol-3-yl]formamido}-5-(3,3-difluoropiperidin-1-yl)-N-(1,3-thiazol-2-yl)pentanamide]	7	7	1	–	–	–	–	–	–	–	–	–	–
